Test results from patent US20140322139A1, “STABILIZATION OF X-RAY DIAGNOSTIC COMPOSITION” (GE HEALTHCARE AS, priority 2011, published 2014).

Assays:
[1] = Dissolution temperature of ioforminol in water for injection; assay type: physicochemical; settings: water for injection as the solvent, concentration range 270-380 mg I/ml
[2] = Physical stability study: visual inspection for crystallisation during storage; assay type: physicochemical; settings: conclusion from the storage study of Ioforminol/Visipaque mixtures
Experimental: Formulated Ioforminol (320 mg I/ml) and Visipaque (Iodixanol 320 mg I/ml) were filled on 100 ml glass vials in mixtures with ratios according to Table 1. The filling was performed by using a Flexicon PF5 peristaltic pump. The vials were sealed by closures comprising stoppers and overlying caps. The vials were split into two populations, one that was subjected to heat steam sterilisation at 121° C. (autoclaving) for 20 minutes and one that was used without further treatment.
The autoclaved and non-autoclaved samples of different mixtures were placed on storage at 25, 40 and 60° C. respectively. The samples were subjected to visual inspection weekly for the first 5 weeks before inspection was carried out monthly.

Row | dissolution temperature [1] [°C] | inhibition of primary nucleation [2] | SMILES
1 | ~110 | – | O=CN(CC(O)CN(C=O)c1c(I)c(C(=O)NCC(O)CO)c(I)c(C(=O)NCC(O)CO)c1I)c1c(I)c(C(=O)NCC(O)CO)c(I)c(C(=O)NCC(O)CO)c1I (centres unmarked) [Ioforminol, 5-[formyl-[3-[formyl-[3,5-bis(2,3-dihydroxypropylcarbamoyl)-2,4,6-triiodophenyl]amino]-2-hydroxypropyl]amino]-N,N′-bis(2,3-dihydroxypropyl)-2,4,6-triiodobenzene-1,3-dicarboxamide]
2 | – | potent inhibitor of primary nucleation | CC(=O)N(CC(O)CN(C(C)=O)c1c(I)c(C(=O)NCC(O)CO)c(I)c(C(=O)NCC(O)CO)c1I)c1c(I)c(C(=O)NCC(O)CO)c(I)c(C(=O)NCC(O)CO)c1I (centres unmarked) [Iodixanol]
